Assay results reported in article PMC5458078, “Global mapping of CARM1 substrates defines enzyme specificity and substrate recognition” (Nature Communications, 2017).

Key:
MCF7 cells = experiment: Quantitative nanoLC-MS/MS (TMT) of ADMA-containing peptides, CARM1 KO vs parental; assay type: cell-based, human; set-up: Fold change KO/WT: scale not given here
MCF7 CARM1 KO cells = experiment: Quantitative MS of ADMA-containing peptides in MCF7 CARM1 KO cells expressing CARM1 28-608 or CARM1 140-608, and in CARM1 KO; assay type: cell-based, human
[1] = MCF7 CARM1 knockout vs wild type, 3 biological replicates each, values are on log2 scale
[2] = ADMA-containing peptide, MCF7, CARM1 knockout (KO1-3) vs wild type (WT1-3), TMT 6-plex experiment #1
[3] = MCF7, CARM1 KO vs WT, three biological replicates each
[4] = CARM1 KO vs wild type MCF7 cells, 3 biological replicates each
[5] = ADMA-containing peptide, CARM1 knockout (KO) vs wild type (WT) MCF7 cells, 6-plex TMT experiment #1, three biological replicates each, sheet "MCF7"
[6] = MCF7, CARM1 knockout vs wild type, n = 3 each
[7] = MCF7, CARM1 KO (KO1-KO3) vs wild type (WT1-WT3)
[8] = ratio on log2 scale, mean of 3 replicates

VPASPQSQSSSQSPLTPrPLSAEAFCPSPVTPRFQSPDPYSRPPSRPQSR
Fold change KO/WT (MCF7 cells; [1]): -2.744

INPGLEYrQHLLLrGPPPGSANPPR
Fold change KO/WT (MCF7 cells; [1]): -0.6044

AFHDYSAAAAPSPVLGNIPPNDGMPGGPIPPGFFQPFMSPrYAGGPrPPIR
Fold change KO/WT (MCF7 cells; [2]): -2.246

TGALPGPGPLSNPrLGGLPGPGPMSNPrAGGLLGAGPDPR
Fold change KO/WT (MCF7 cells; [3]): -2.931

AYGQQYWGQPGNrGGYR
Fold change KO/WT (MCF7 cells; [1]): -0.04736

MrPQPYGGTNPYSQQQGPPSGPQQGHGYPGQPYGSQTPQrYPMTMQGR
Fold change KO/WT (MCF7 cells; [3]): -3.351

EHGAAASErLQLGTPPPLLAArLVPPR
CARM1 140-608/WT (MCF7 CARM1 KO cells; CARM1 140-608 versus WT, mean of three replicates (log2)): -0.1041
KO/WT (MCF7 CARM1 KO cells; KO versus WT, mean of three replicates (log2)): -0.4942

LTrGQLQHLGTR
Fold change KO/WT (MCF7 cells; [4]): 0.1695

QGSIGLYTQNQPLPAGGPRVDPYrPVRLPMQK
Fold change KO/WT (MCF7 cells; [5]): -1.665

QGSIGLYTQNQPLPAGGPrVDPYrPVRLPMQK
Fold change KO/WT (MCF7 cells; [5]): -2.102

MQLQQrLQGQQFLNQSrQALELK
Fold change KO/WT (MCF7 cells; [5]): -3.454

GPSGGYrGSGGFQrGGGrGAYGTGYFGQGR
Fold change KO/WT (MCF7 cells; [6]): 0.2112

GrGTLTrGAFVGATAAPGYIAPGYGTPYGYSTAAPAYGLPKR
Fold change KO/WT (MCF7 cells; [2]): -0.6705

LDrICEGIRPQIMNGPLHPRPLVALLDGR
Fold change KO/WT (MCF7 cells; [6]): -0.535

DLVILLYETALLSSDFGLEGPQTHANr
Fold change KO/WT (MCF7 cells; [1]): 0.05306

PABP1: a known CARM1 substrate
Decrease of ADMA site abundance on CARM1 loss (MCF7 cells; CARM1 KO vs parental MCF7 cells): slightly over twofold

SYSrGGGDQGYGSGR
Fold change KO/WT (MCF7 cells; [7]): -0.3099

RPQLYGMGSNPHSQPQQSSPYPGGSYGPPGPQrYPIGIQGR
Fold change KO/WT (MCF7 cells; [3]): -1.511

MGTPVPRPPQDMGQIGVrTPLGPR
CARM1 140-608/WT (MCF7 CARM1 KO cells; CARM1 140-608 vs WT, mean of 3 replicates (log2 scale)): -1.0135
KO/WT (MCF7 CARM1 KO cells; KO vs WT, mean of 3 replicates (log2 scale)): -2.444

TGALPGPGPLSNPrLGGLPGPGPMSNPrAGGLLGAGPDPrGGGPMGPGSGPNLR
Fold change KO/WT (MCF7 cells; [3]): -2.513

INPGLEYrQHLLLR
Fold change KO/WT (MCF7 cells; [1]): -1.551

GGFQNrGGGSGGGGNYrGGFNR
Fold change KO/WT (MCF7 cells; [1]): 0.1419

TGFTNIPSrYGTNNR
Fold change KO/WT (MCF7 cells; [7]): -2.195

MGTPVPRPPQDMGQIGVRTPLGPrVAAPVGPVGPTPTVLPMGAPVPrPrGPPPPPGDENR
Fold change KO/WT (MCF7 cells; [7]): -3.578

FEGSPGLrFEGSPGGLrFEGPGGQPVGGLrFEGHR
Fold change KO/WT (MCF7 cells; [5]): -0.8785

LQHMQQQQPPPrLINFQNHSPKPNGPVLPPHPQQLrYPPNQNIPR
Fold change KO/WT (MCF7 cells; [2]): -0.9847

LISVQTMQrGNMNCGAFQAHQMR
Fold change KO/WT (MCF7 cells; [2]): -0.03531

ICEGIrPQIMNGPLHPRPLVALLDGR
CARM1 140-608/WT (MCF7 CARM1 KO cells; [8]): -0.2372
KO/WT (MCF7 CARM1 KO cells; [8]): -0.9025

SPYTTTrYGSPINTFTVRPGTR
CARM1 140-608/WT (MCF7 CARM1 KO cells; CARM1 140-608 vs WT, mean of 3 replicates, log2): -0.1037
KO/WT (MCF7 CARM1 KO cells; KO vs WT, mean of 3 replicates, log2): -2.259

FLQPrLAPNQPPPPLIrPALAAPRHSARPGPQPPPTLIGTPLEPPAPSL
Fold change KO/WT (MCF7 cells; [7]): -2.908

QLrMQLQQR
Fold change KO/WT (MCF7 cells; [5]): -2.307

TLLrGGMSLrGQNLLrGGR
Fold change KO/WT (MCF7 cells; [3]): 0.06328

LLGQRPGPYDrPIGGRGGYYGAGrGSMYDR
Fold change KO/WT (MCF7 cells; [1]): 0.09272

EELLrHQLLEKR
Fold change KO/WT (MCF7 cells; [3]): -2.786

TEQAGrNALLSDISK
Fold change KO/WT (MCF7 cells; [4]): -1.119

QVTITGSAASISLAQYLINAr
Fold change KO/WT (MCF7 cells; [5]): -0.8472

MGTPVPRPPQDMGQIGVrTPLGPRVAAPVGPVGPTPTVLPMGAPVPrPR
Fold change KO/WT (MCF7 cells; [7]): -3.4667

AAGMTPLYAGQrLPQHGYPGPPQAQPLPrQGVK
Fold change KO/WT (MCF7 cells; [4]): -1.882

DLYANTVLSGGSTMYPGIADr
Fold change KO/WT (MCF7 cells; [3]): 0.2012

SPYTTTRYGSPINTFTVrPGTR
Fold change KO/WT (MCF7 cells; [3]): -3.3255

LPNRDFAFYNPrLQGK
Fold change KO/WT (MCF7 cells; [3]): -1.34

PVPPPPAPPPPPTFALANTEKPTLNKTEQAGrNALLSDISK
Fold change KO/WT (MCF7 cells; [4]): -1.049

TYSEVYPGQQYLQGGQYAPSTAQFAPSPGQPPAPSPSYPGHrLPLQQGMTQSLSVPGPTGLHYKPTR
Fold change KO/WT (MCF7 cells; [4]): -2.904

NrGFYPWGQYNrGGYGNYR
Fold change KO/WT (MCF7 cells; [2]): -0.1483

MGTPVPRPPQDMGQIGVrTPLGPrVAAPVGPVGPTPTVLPMGAPVPrPRGPPPPPGDENR
Fold change KO/WT (MCF7 cells; [7]): -1.953

LSLPPIHTLYQPrFGNSQSFTSK
Fold change KO/WT (MCF7 cells; [2]): -2.191

LPPDRYCLTAPNYrLK
Fold change KO/WT (MCF7 cells; [2]): -0.4021
